Test results published in patent US20250381269A1, “BISPECIFIC ANTIBODY BINDING EGFR AND B7-H3” (FORTVITA BIOLOGICS (SINGAPORE) PTE. LTD., priority 2022, published 2025).

What was measured:
[1] = test system: H322; test: Proliferation inhibition experiment, H322 (NSCLC); format: cell-based; conditions: EGFR WT, KRAS WT
Method: (§1) • (1) NSCLC: plated at 1500-2500 cells/100 μL in a 96-well low-adsorption plate (Corning, CLS7007-24EA) for 3D cell culture, in which the following cell lines and specific amounts were used: • NSCLC: 2000 cells/100 μL/well • NCI-H292: Cell Bank of the Chinese Academy of Sciences, SCSP-582 • NCI-H322: Cobioer, CBP60134 • NCI-H1650: ATCC, CRL-5883 • NCI-H1975: ATCC, CRL-5908 • SK-MES-1: CoBioer, CBP60152 • NCI-H1703: ATCC, HTB-43 • PC9+hB7H3: constructed as described above • CRC and HNSCC: plated at 1500-2000 cells/100 μL in a 96-well white-bottom plate (NUNC, 136101) for 2D cell culture, in which the following cell lines and specific amounts were used: • CRC: 1500 cells/100 μL/well • CCK-81: CoBioer, CBP60581 • HT-55: CoBioer, CBP60012 • H508: CoBioer, CBP60795 • LS180: CoBioer, CBP60034 • HNSCC: 1500 cells/100 μL/well • TE-1: CoBioer, CBP60655 • Colo680: CoBioer, CBP60452. (2) The antibody molecules prepared in advance by dilution were added to the corresponding cell well plate, mixed well, and cultured in an incubator at 37° C. with 5% CO2 for 5 days. • (3) After 5 days of continuous culture for proliferation inhibition assay, the Cell-Titer reagent (Promega, G7572) prepared in advance was added to cell wells, the plate was left to stand at room temperature for 15-25 min in the dark, and then CRC and HNSCC cells were directly detected by a multimode microplate reader (Molecular Devices, Spectra MAXi3). • (4) NSCLC: Cell-Titer and the cell mixture were transferred to a 96-well white-bottom plate (NUNC, 136101) and detected by a multimode microplate reader (Molecular Devices, Spectra MAXi3).

[2] = test system: H358; test: ADCC report assay, H358; format: cell-based; conditions: EGFR WT, KRAS G12C, effector/target 10:1, 20 h
Method: In the ADCC report assay, ADCC effector cells ((Promega, G7102)) are engineered cells in which FcRIIIa (V158) receptor is overexpressed into Jurkat T cells, which rapidly respond to ADCC through the NFAT-RE driving element within the Jurkat T cells.
• (1) Tumor cells (cell lines listed in Table 3) and ADCC effector cells (Promega, G7102) were mixed well (1.5E4 cells: 1.5E5 cells/well/100 μL (1.5E5: 1.5E6 cells/mL)) according to an effector/target ratio (10:1), and added to a 96-well white plate (NUNC, 136101). • (2) The antibody molecules prepared in advance by dilution were added to the corresponding cell well plates, mixed well, and cultured at 37° C. with 5% CO2 for 20 h. • (3) The Bio-glo reagent (Promega, G755B) prepared in advance was added to the cell well plate, the plate was left to stand at room temperature for 10-15 min in the dark, and then the cells were detected by a multimode microplate reader (Molecular Devices, Spectra MAXi3).

[3] = test system: NCI-H292 tumor-bearing mice; test: Anti-tumor efficacy in NCI-H292 tumor-bearing mice; format: in vivo; conditions: NCI-H292, Balb/c Nude mice, 5 mg/kg i.p. Q3-4D x4; for Tumor volume (mm^3): day not printed in column (TGI based on day 22); for Complete response rate @ Day 59: tumor volume of 0, 5 mice per group; for Tumor growth inhibition (%) @ Day 22: vs h-IgG 5 mg/kg
Excerpt: SPF female Balb/c Nude mice (purchased from Beijing Vital River Laboratory Animal Technology Co., Ltd.) with certificate No. 110011211108430747 were used in the experiment.
NCI-H292 cells were routinely subcultured for the subsequent in-vivo experiment. The cells were collected by centrifugation. Then the NCI-H292 cells were resuspended in an equal-proportion mixture of PBS (1×) and Matrigel Matrix (Corning) to prepare a cell suspension with a cell concentration of 20×10^6 cells/mL. On day 0. 0.2 mL of the cell suspension was taken and subcutaneously inoculated to the right abdominal area of Balb/c Nude mice to establish NCI-H292 tumor-bearing mouse models.
Four days after the tumor cell inoculation, the tumor volume in each mouse was measured. The mice were grouped (with 5 mice in each group).
h-IgG. […] Administration was performed on days 4, 8, 12, and 15 after the inoculation of NCI-H292 cells. Mice were monitored for tumor volume and body weight twice a week. […] Since death of mice due to tumors occurred earlier in some groups, relative tumor growth inhibition (TG1%) was calculated based on the tumor volume on day 22 after the inoculation by the following formula:
TG1%=100%×(control group tumor volume−treatment group tumor volume)/(control group tumor volume−control group tumor volume before administration).
Tumor volume measurement: The maximum length of major axis (L) and maximum length of minor axis (W) of tumors were measured with a vernier caliper, and tumor volume was calculated by the following formula: V=L×W^2/2.
The mice were weighed using an electronic balance. Mice with tumor volumes above 2000 mm3 or weight loss above 20% were euthanized.

[4] = test system: Colo-680N; test: Proliferation inhibition experiment, Colo-680N (HNSCC); format: cell-based; conditions: EGFR WT, KRAS WT
Method: as §1

[5] = test system: H1703; format: cell-based, human; conditions: EGFR Amplification, KRAS WT, huPBMC:target 50:1, 8 h, LDH
Method: • (1) A CTS medium (Gibco, A3021002) was preheated at 37° C. huPBMC (Miaotong Biotechnology, PB 100C-W) was quickly thawed in a water bath, and then the cells were added slowly to 8 mL of CTS medium (containing 1% DNase). • (2) The mixture was centrifuged at 300 g for 8 min. The supernatant was removed, and the cells were resuspended in 30 mL of CTS (containing 10 μL of DNase), transferred to a T75 flask, and incubated in an incubator at 37° C. overnight. • (3) The suspension cells cultured overnight were taken and centrifuged at 300 g for 8 min. The supernatant was removed, and the cell density was adjusted with CTS. According to an effector/target ratio of effector cells (huPBMCs) to target cells (tumor cells in Table 5) of 50:1, huPBMCs and the tumor cells prepared in advance (Target: huPBMC=1.5E4/7.5E5 cells/well/100 μL) were plated in a 96-well low-adsorption plate (Corning. CLS7007-24EA). • (4) The diluted antibody drug was added to the corresponding cell well plate and cultured at 37° C. with 5% CO2 for 8 h. • (5) The mixture was centrifuged at 300 g for 5 min. 50 μL of the supernatant was transferred to a 96-well transparent flat-bottom plate ((NUNC, 136101), 50 μL of the LDH reagent (Promega, G1780) prepared in advance was added to the corresponding well plate, and the plate was left to stand at room temperature for 15-30 min in the dark. • (6) 50 μL LDH stop solution (Promega, G1780) was taken and detected by a multimode microplate reader (Molecular Devices, Spectra MAXi3) at 490 nm for readings.

## amivantamab [JNJ372]
[1]
  Max inhibition (%) Mean ± SD: 38.2 ± 6.7%
[1]; 3D culture, 5 days
  IC50: 8.06 nM
[2]
  EC50: 0.018 nM
[3]
  Tumor volume (mm^3): 177 mm^3
  Complete response rate @ Day 59: 0/5
  Tumor growth inhibition (%) @ Day 22: 100%
[4]
  Max inhibition (%) Mean ± SD: 26.5 ± 2.2%
[4]; 2D culture, 5 days
  IC50: 25.5 nM

## zalutumumab [Zalu mAb]
[1]
  Max inhibition (%) Mean ± SD: 39.9 ± 0.8%
[2]
  EC50: 0.004 nM
[3]
  Tumor volume (mm^3): 96 mm^3
  Complete response rate @ Day 59: 1/5
  Tumor growth inhibition (%) @ Day 22: 107%
[4]
  Max inhibition (%) Mean ± SD: 24.9 ± 1.1%
[5]
  EC50: 0.007 nM
